The subject of data set [1] is Balb/C female athymic (nude) mice. Conditions: 4 courses. Here is the method: In vivo tests to assess the toxicity of various dosages of AZT and FUra were carried out on Balb/C female athymic (nude) mice.
(§1) The mice were divided into groups of 5-8 animals each and treated with different doses and schedules of FUra, AZT, or both in combination. FUra and AZT were dissolved in normal saline immediately before use and were administered by intraperitoneal bolus injection so that the desired dose was contained in 0.1 ml/10 g animal body weight. FUra was administered in doses corresponding to 80, 90 and 100 mg/kg weekly or 20, 25, and 30 mg/kg for 5 consecutive days with intervening 2 week rest periods. The AZT component was administered at doses of 300 or 600 mg/kg. In those cases where the two components were not administered simultaneously, the FUra component was administered first followed in approximately 2 hours with the AZT component. Toxicity was assessed by determination of mortality, changes in body weight, and changes in white blood cell counts (WBC). Animal body weights were recorded immediately before and twice weekly after initiation of treatment and weight change was calculated as a percentage of the initial body weight. To determine WBC, blood was collected from the orbital sinus in a heparinized Natelson pipette, and after appropriate dilution the cell number was determined electronically one week after each course of therapy. The tests were carried out in duplicate and the pooled number of animals per treatment group was 10-16.
In the control group the mice received no treatment; in group 2 they received 600 mg/kg of AZT; in group 3 they received 85 mg/kg of FUra; in group 4 they received 85 mg/kg of FUra followed at a 2 hour interval by 600 mg/kg of AZT; in group 5 the mice received 100 mg/kg of FUra alone. A total of 4 courses of administration were carried out, each in triplicate, and the pooled number of animals per treatment group corresponded to 23-30.

The test system is the same in data set [2]. The settings on record: 2 courses. Here is the method:
as §1
A second series of toxicity tests were carried out using a different regimen with similar groups of animals as follows:
Group 1 was treated with 600 mg/kg of AZT for days 3 to 5 inclusive; Group 2 was treated with 20 mg/kg of FUra from days 1 to 5; Group 3 was treated with 20 mg/kg of FUra for days 1 to 5 and with 600 mg/kg of AZT for days 3 to 5; Group 4 was treated with 25 mg/kg of FUra for days 1 to 5. The medication was administered by intraperitoneal bolus, the AZT being administered two hours after FUra. The treatment was repeated every two weeks. A total of 2 courses were administered, the tests being carried out in triplicate and the pool number of animals per treatment group corresponded to 21-30.

Data set [3] concerns mice. The experiment in a line: LD10 of MTX in mice. The data set is classed as in vivo. The settings on record: weekly.

SMILES strings stand for the structures. Read-outs that look alike come from different tables or passages of the source.

In the case of `O=c1[nH]cc(F)c(=O)[nH]1` [FUra, 5-fluorouracil], the “Mortality (percent dead on day 29 after starting treatment)” value is recorded as 25% in data set [1] (FUra 85 mg/kg i.p.); 60.8% in data set [1] (FUra 100 mg/kg i.p.); 0% in data set [2] (FUra 20 mg/kg i.p. days 1 to 5, repeated every two weeks); 12.5% in data set [2] (FUra 25 mg/kg i.p. days 1 to 5, repeated every two weeks).
Take `CN(Cc1cnc2nc(N)nc(N)c2n1)c1ccc(C(=O)N[C@@H](CCC(=O)O)C(=O)O)cc1` [MTX, methotrexate]: the LD10 in data set [3] worked out at 87.5 mg/kg/wk.
Take `Cc1cn([C@H]2C[C@H](N=[N+]=[N-])[C@@H](CO)O2)c(=O)[nH]c1=O` [AZT, 3′-azido-3′-deoxythymidine]: the “Mortality (percent dead on day 29 after starting treatment)” value is 0% in data set [1] (AZT 600 mg/kg i.p.) and 0% in data set [2] (AZT 600 mg/kg i.p. days 3 to 5, repeated every two weeks).

These data come from patent US6365578B1, “Drug cominbations containing AZT” (Roger Williams General Hospital, priority 1990, dated 2002).
